Results: patent US20110311643A1, “SUPPLEMENTED MATRICES FOR THE REPAIR OF BONE FRACTURES” (Kuros Biosurgery AG, priority 2005, published 2011)
Marks after values point to notes of the source that are not given here.

Experiments:
[1] = system: acute, open tibial shaft fractures; assay: Phase II clinical study of I-040202 in tibial shaft fractures; format: in vivo, patients; conditions: Intent-to-Treat
Source text: This was a Phase II, prospective, randomized, controlled, open-label (dose-blinded), parallel-group, multi-center clinical study of the efficacy and safety of TGplPTH1-34 in a matrix made of fibrin (I-040202) in patients with acute, open tibial shaft fractures. The supplemented matrix was applied directly to the fracture site in the form of a paste. A total of 200 patients were randomized and treated in 31 centers across Europe.
The study consisted of four study groups: one control group using standard of care (SoC) which included intramedullary nailing and soft tissue management, and three treatment groups using 4 mL of I-040202 containing TGplPTH1-34 at concentrations of 0.133, 0.4 and 1.0 mg/mL fibrin matrix respectively (different concentrations of TGplPTH1-34), as an adjunct to SoC. Patients followed up clinically and radiologically on a monthly basis until 6 months post-surgery, and thereafter at 9 and 12 months post-surgery.
The primary endpoint was the proportion of patients who had fracture healing at 6 months as assessed by the investigator using radiographic and clinical parameters. Three doses of I-040202 in combination with SoC were compared against SoC alone.

[2] = system: 1 cm segmental tibial defect; assay: Sheep tibial defect model, supplemented fibrin matrix with TCP granules; format: in vivo
Description: The fibrin matrix was formed starting from the TISSEEL® Kit (Baxter AG, CH-8604 Volketswil/ZH) giving 4 mL fibrin matrix. TISSEEL® is produced from human derived pooled plasma and the content of active ingredients may vary from lot to lot within predefined ranges.
Matrix: A supplemented fibrin matrix containing granular material and PTH fusion peptide (TGplPTH1-34) was prepared using 3 separate syringes, a two-way syringe containing fibrin precursor solution and PTH fusion peptide (syringes 1 and 2) and two one-way syringes, one containing water and the other containing granules (syringes 3 and 4).
First the hydroxyapatite/calcium phosphate granules in syringe 4 were wetted by injection of the water of syringe 3. The fibrin precursor solution of syringe 1 (fibrinogen and TGplPTH1-34 suspended in a solution with aprotinin, a serine proteinase inhibitor which helps reduce fibrolysis to retain the integrity of the fibrin matrix) was mixed with the fibrin precursor solution of syringe 2 (thrombin in a calcium chloride solution). TGplPTH1-34 was formulated into the fibrinogen component to give a final concentration in the matrix varying from of 0.1 mg/mL to 10 mg/mL of the fibrin matrix and during the gelation process TGplPTH1-34 became crosslinked to the matrix. Fibrin precursor solutions also contained other components of fibrin matrix, such as plasma fibronectin, Factor XIIIa, plasminogen, and human albumin. When the precursor solutions are in equal volumes, a clotting process occurs to form fibrin. The clotting process takes place over several minutes which allows for the simultaneous injection of the mixed solutions into syringe 4, which contain the wetted granules. The matrix can then be introduced at the site of need where it solidifies. Enough matrix was placed in the defect to completely fill it.
Animals: A total of 42 Swiss Alpine, female sheep ranging between 44-83 kg (mean: 62.8 kg) and 2.25-4.75 years of age were chosen as experimental animals. Seven groups were formed with autografts as positive and fibrin matrix plus TCP granules as negative controls. The other groups consisted of the same fibrin matrix and TCP granules, but differed only in dosage of the TGplPTH1-34. Groups were followed for 12 weeks, when animals were sacrificed at a university-owned slaughter house. All animal experiments were conducted according to the Swiss laws of animal protection and welfare and were authorized by the local Ethical Committee and Veterinary Authorities.
Surgery: A medial approach to the tibia shaft was performed directly above the bone and extending from the distal aspect of the stifle to the hock joint, the medial fascia of the tibia was incised and the medial aspect of the tibia exposed without disturbing the periosteum. A 11 hole, 3.5 mm broad dynamic compression plate (Synthes) was contoured to the shaft with the distal end of the plate ending above the tibiotarsal joint. The plate was fixed to the bone using eleven 3.5 mm screws in a neutral position and distributing five screw holes distally and six proximally to the planned defect. The screws and plate were removed. Thereafter, the defect was marked on the bone with a scalpel blade using a gage ensuring a standardized 1 cm defect between the 5th and 6th screw hole. With an oscillating saw, the defect was cut under constant irrigation and preservation of soft tissues. The 1 cm segment including the circumferential periosteum was carefully removed and local bleeding out of the bone marrow or local soft tissue was stopped applying pressure with a gauze. The plate was repositioned and all screws reinserted before the matrix was filled into the bone gap as described above. Care was taken to distribute the matrix equally underneath the plate, on the lateral and as well as the transcortex.
For the positive autograft control group, autogenic bone was harvested through a local incision directly above the iliac crest. […]

[3] = Stability of PTH / TGPTH in buffer (spiked samples, direct ELISA); format: physicochemical; conditions: 0.5 μg/mL; 37° C.; distilled water, phosphate buffer saline, tris-buffer saline
Description: For the first release assay a fibrin matrix of 50 μl with 0.1 mg PTH or TGPTH per ml fibrin matrix was incubated at 37° C. in 10 ml buffer. Therefore, the concentration of PTH or TGPTH in the buffer in case of a total release would be 0.5 μg PTH or TGPTH/mL fibrin matrix. In order to compare the stability of PTH or TGPTH during the assay, samples of PTH or TGPTH were diluted directly in the buffer to a concentration of 0.5 μg PTH or TGPTH/mL fibrin matrix. Different buffers were tested: distilled water, phosphate buffer saline, tris-buffer saline.
Aliquots were taken at days 0, 1, 2, 4 and 6 and analysed by direct ELISA. […] Therefore, no conclusion could be made on the release data. The PTH stability was certainly affected by its low concentration and the buffers that were not optimal.
The release experiment was repeated by using a stabilizing buffer containing 50 mM mannitol in a 10 mM sodium acetate buffer. In addition, the buffer was exchanged every 2 days in order to prevent any degradation of peptide. […] The concentration of PTH or TGPTH in the buffer in case of a total release would be 100 μg/mL fibrin matrix (200 times more than before). […] Samples were collected every 2 to 4 days (with a change of buffer) during 2 weeks and analysed by direct ELISA. […]

[4] = 1 mg TGplPTH1-34/mL fibrin matrix

Row | Compound | % healed at 6 months (Clinician's assessment) ([1]; 0.133 mg TGplPTH1-34/ml fibrin matrix + SoC) | % healed at 6 months (Clinician's assessment) ([1]; 0.4 mg TGplPTH1-34/ml fibrin matrix + SoC, p = 0.084 vs SoC alone) | % healed at 6 months (Clinician's assessment) ([1]; 1.0 mg TGplPTH1-34/ml fibrin matrix + SoC) | amount of endosteal bone formation (histomorphometry) [2, 4] | rate of granule resorption (histomorphometry) [2, 4] | animals showing bridging ([2]; 1 mg TGplPTH1-34/mL fibrin matrix, 8 weeks) | animals healed showing stable, clinical unions ([2]; 1 mg TGplPTH1-34/mL fibrin matrix, after 12 weeks) | animals showing bending of the plate ([2]; 1 mg TGplPTH1-34/mL fibrin matrix, within the first four weeks) | periosteal healing compared to negative control material ([2]; 0.4 and 1 mg TGplPTH1-34/mL fibrin matrix) | healing compared to autograft ([2]; 0.4 and 1 mg TGplPTH1-34/mL fibrin matrix, 12 weeks) | animals with unstable fracture site ([2]; 12 weeks, plate removed, movement/torsion of the limb, TGplPTH1-34 at 1 mg/mL fibrin matrix, FIG. 4) | periosteal healing response (radiographs) ([2]; doses between 0.4 and 2 mg TGplPTH1-34/mL fibrin matrix, every time point) | rates of endosteal bone formation and granule resorption ([2]; higher doses of TGplPTH1-34) | stability of the defect at the endpoint ([2]; higher doses than about 1 mg TGplPTH1-34/mL fibrin matrix, 12 weeks) | time stable in buffer [3]
1 | NQEQVSPLYKNRSVSEIQLMHNLGKHLNSMERVEWLRKKLQDVHNF (Modified Parathyroid hormone (PHT), comprisig amino acids 1-34 of native PTH as well as a transglutaminase substrate domain and a plasmin-degradable sequence) [TGplPTH1-34] | 75.6% (34 of 45) | 80.4%* (37 of 46) | 69.2% (27 of 39) | higher than with the other concentrations of TGplPTH1-34 | highest resorption rate | one | 5 animals | one | statistically stronger periosteal healing | equivalent to autograft | one | much stronger periosteal healing response | lower rates of both endosteal bone formation and granule resorption | much lower stability | –
2 | CC[C@H](C)[C@H](NC(=O)[C@H](CCC(=O)O)NC(=O)[C@H](CO)NC(=O)[C@@H](NC(=O)[C@@H](N)CO)C(C)C)C(=O)N[C@@H](CCC(N)=O)C(=O)N[C@@H](CC(C)C)C(=O)N[C@@H](CCSC)C(=O)N[C@@H](Cc1cnc[nH]1)C(=O)N[C@@H](CC(N)=O)C(=O)N[C@@H](CC(C)C)C(=O)NCC(=O)N[C@@H](CCCCN)C(=O)N[C@@H](Cc1cnc[nH]1)C(=O)N[C@@H](CC(C)C)C(=O)N[C@@H](CC(N)=O)C(=O)N[C@@H](CO)C(=O)N[C@@H](CCSC)C(=O)N[C@@H](CCC(=O)O)C(=O)N[C@@H](CCCN=C(N)N)C(=O)N[C@H](C(=O)N[C@@H](CCC(=O)O)C(=O)N[C@@H](Cc1c[nH]c2ccccc12)C(=O)N[C@@H](CC(C)C)C(=O)N[C@@H](CCCN=C(N)N)C(=O)N[C@@H](CCCCN)C(=O)N[C@@H](CCCCN)C(=O)N[C@@H](CC(C)C)C(=O)N[C@@H](CCC(N)=O)C(=O)N[C@@H](CC(=O)O)C(=O)N[C@H](C(=O)N[C@@H](Cc1cnc[nH]1)C(=O)N[C@@H](CC(N)=O)C(=O)N[C@@H](Cc1ccccc1)C(=O)O)C(C)C)C(C)C [PTH1-34] | – | – | – | – | – | – | – | – | – | – | – | – | – | – | ≤ 2 days
